The text below walks through data of paper PMC6348381, “Discovery of an MLLT1/3 YEATS Domain Chemical Probe” (Angewandte Chemie (International Ed. in English), 2018).

In one test the target is T1, MLLT1 (Homo sapiens, UniProt Q03111).
T1 construct: We also developed a full length MLLT1:Histone 3.3 (H3.3) NanoBRET assay; host or cells: HEK293
Kind of test: NanoBRET assay, full length MLLT1:Histone 3.3 in HEK293 cells. Type of test: cell-based. The note with it: relative to the DMSO control. On the technique in general: Bioluminescence resonance energy transfer reports proximity on the nanometre scale.

The target of the next test is T2, MLLT3 (Homo sapiens, UniProt P42568).
T2 construct: in full length MLLT3 N-terminal NanoLuc, Histone; host or cells: HEK293
T2 sequence (P42568 1-568): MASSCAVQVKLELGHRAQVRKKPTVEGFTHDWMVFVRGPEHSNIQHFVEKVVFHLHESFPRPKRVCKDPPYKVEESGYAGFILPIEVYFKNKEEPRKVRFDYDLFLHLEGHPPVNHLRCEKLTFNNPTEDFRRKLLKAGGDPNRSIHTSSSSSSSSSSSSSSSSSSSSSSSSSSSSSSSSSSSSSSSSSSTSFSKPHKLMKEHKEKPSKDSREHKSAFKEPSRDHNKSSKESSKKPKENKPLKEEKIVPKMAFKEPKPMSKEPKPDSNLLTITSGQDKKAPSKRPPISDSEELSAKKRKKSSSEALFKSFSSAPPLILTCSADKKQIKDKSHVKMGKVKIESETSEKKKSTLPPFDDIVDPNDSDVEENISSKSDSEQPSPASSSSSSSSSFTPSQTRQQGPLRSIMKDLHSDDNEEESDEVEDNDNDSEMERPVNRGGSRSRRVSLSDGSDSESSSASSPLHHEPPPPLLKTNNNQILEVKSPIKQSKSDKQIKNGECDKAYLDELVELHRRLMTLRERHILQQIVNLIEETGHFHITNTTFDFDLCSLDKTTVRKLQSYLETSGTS
Kind of test: NanoBRET assay, full-length MLLT3-NanoLuc / histone H3.3-HaloTag in HEK293 cells. It counts as cell-based. The note with it: 24 h, representative assay. As for the experimental part:
II.V NanoLuciferase Bioluminescent Resonance Energy Transfer (NanoBRET) Assay[2]
HEK293 cells ([…]) were plated in each well of a 6-well plate after 6 h cells were co-transfected with Histone H3.3-HaloTag (NM_002107) and a NanoLuciferase fusion of MLLT1 or MLLT3 (WT sequences from Promega HaloTag® human ORF in pFN21A) at a 1:500 and 1:10 (NanoLuc® to HaloTag®) ratio respectively with FuGENE HD transfection regent. Sixteen hours post-transfection, cells were collected and exchanged into media containing phenol red-free DMEM and 4% FBS in the absence (control sample) or the presence (experimental sample) of 100 nM NanoBRET 618 fluorescent ligand (Promega).
Cell density was adjusted to 2 x 10^5 cells/mL and then seeded 100 µL/well in a white 96-well plate (Corning Costar #3917). Compounds were then added directly to media (in the presence of SAHA 2.5 µM) at final concentrations 0.01-30 μM or an equivalent amount of DMSO as a vehicle control, and the plates were incubated for 24 h at 37 °C in the presence […]
NanoBRET Nano-Glo substrate (Promega) was added to both control and experimental samples at a final concentration of 10 µM. Readings were performed within 5 minutes using a ClarioSTAR (BMG labtech) equipped with LP 480 and 610 nm filters. A corrected BRET ratio was calculated and is defined as the ratio of the emission at 610 nm/[…] for experimental samples minus the emission at 6 10 nm/640 nm for control samples (not incubated with NanoBRET fluorescent ligand). BRET ratios are expressed as milliBRET units (mBU), where 1 mBU corresponds to the corrected BRET ratio multiplied by 1000.
3.3 C-terminal HaloTag in HEK293 cells. Treatment with SAHA (2.5 µM) alone increases MLLT3- […]
dependent manner. Mean±SD of BRET ratio (mBU), n=4 technical replicates.
(also on this page, place not known: 5) -well H3.3 -HaloTag pFN21A ) ( NanoLuc® H aloTag®) post -transfection, red -free Nano -Glo 10 5 6 10 6 10 l igand). cells . […]

Each structure is given as a SMILES string.

T1 sequence (Q03111 whole entry): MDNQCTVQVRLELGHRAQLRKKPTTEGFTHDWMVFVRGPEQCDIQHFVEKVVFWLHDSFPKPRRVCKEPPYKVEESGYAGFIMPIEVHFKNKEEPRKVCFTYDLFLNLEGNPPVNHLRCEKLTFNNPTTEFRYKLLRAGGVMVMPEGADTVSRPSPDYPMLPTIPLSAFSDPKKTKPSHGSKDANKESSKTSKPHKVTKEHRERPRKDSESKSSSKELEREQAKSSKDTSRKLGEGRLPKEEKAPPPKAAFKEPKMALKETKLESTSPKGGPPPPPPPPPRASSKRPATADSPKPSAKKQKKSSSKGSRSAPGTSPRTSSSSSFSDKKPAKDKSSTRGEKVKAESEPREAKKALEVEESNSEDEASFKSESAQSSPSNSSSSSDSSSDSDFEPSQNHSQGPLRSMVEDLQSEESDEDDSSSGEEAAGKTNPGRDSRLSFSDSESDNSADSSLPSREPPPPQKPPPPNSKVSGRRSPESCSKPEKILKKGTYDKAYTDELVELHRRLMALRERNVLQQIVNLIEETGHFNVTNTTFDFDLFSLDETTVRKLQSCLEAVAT
Experimental for MLLT1: Compounds were then added directly to media (in the presence of SAHA 2.5 M) at final concentrations 0.01-30 μM or an equivalent amount of DMSO as a vehicle control, and the plates were incubated for 24 h at 37 °C in the presence

Turning to `O=C(CCCCCCC(=O)Nc1ccccc1)NO` [SAHA, suberoylanilide hydroxamic acid, reference compound], at MLLT1, the “BRET activity (mBU), MLLT1:H3.3 NanoBRET” value is on record as “significant increase in BRET activity”. Further, the “MLLT3-Histone 3.3 interaction (mBU)” value at MLLT3 was “increases”.
